Data on 13 compounds can be found in patent publication US20250304549A1, “HYDROXYAMIDE DERIVATIVE AND USE THEREOF” (SICHUAN HUIYU PHARMACEUTICAL CO., LTD., priority 2022, published 2025).

One test has as its target LSD1 (Homo sapiens (Human), UniProt O60341). The experiment in a line: In vitro enzyme inhibition assay - LSD1 (HTRF). It counts as biochemical. (In general: Time-resolved FRET reads energy transfer from a long-lived donor to a nearby acceptor.)
Another test deals with NCI-H69 cells. The experiment in a line: In vitro cell inhibition assay - NCI-H69 cell proliferation (CellTiter-Glo). It counts as cell-based. Conditions: Homo sapiens, NCI-H69, H69 small cell lung cancer cell proliferation. In outline: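 CellTiter-Glo luminescence measured viability after a 7-day, 37° C. exposure of NCI-H69 cells (1×10^3/well) to an 8-point, 5-fold dilution series in RPMI-640/20% FBS. Inhibition was normalised to untreated and cell-free wells and IC50 derived by curve fitting.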
(In general: Cellular ATP, detected with luciferase, serves as a proxy for viable cell number.)

The next test has as its system NCI-H1417 cells. Nature of the test: In vitro cell inhibition assay - H1417 cell proliferation (CellTiter-Glo). Format: cell-based. The conditions noted are these: Homo sapiens, NCI-H1417, H1417 small cell lung cancer cell proliferation. In outline:
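Cells exposed to 8 compound concentrations (5-fold dilutions) in BEGM with 10% FBS for 7 days at 37° C., 5% CO2. Viable cells measured by CellTiter-Glo luminescence; inhibition versus no-inhibitor and no-cell controls, IC50 fitted.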

The next test deals with pan-HDAC. The experiment in a line: In vitro enzyme inhibition assay - HDAC (HDAC-Glo I/II), pan-HDAC. Format: biochemical. In outline: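 Eight compound concentrations (5-fold steps from a 1 mM DMSO stock) tested against pan-HDAC, HDAC1 and HDAC8 with HDAC-Glo I/II reagents, luminescence read-out. Percent inhibition normalized to no-inhibitor and no-enzyme wells; IC50 derived by four-parameter logistic fit.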

The IC50 is the concentration that inhibits the measured activity by half. The low end stands for greater potency, the high end for weaker potency.

Structures can show the parent of a compound that is named as a salt.

For `COc1ccc(-c2cnc(N3CCC(NCc4ccc(/C=C/C(=O)NO)cc4F)CC3)c(C#N)c2-c2ccc(C#N)nc2)cc1O` [Example 252, (E)-3-(4-(((1-(3′,6-Dicyano-5′-(3-hydroxy-4-methoxyphenyl)-[3,4′-bipyridin]-2′-yl)piperidin-4-yl)amino)methyl)-3-fluorophenyl)-N-hydroxyacrylamide formate], the 50% inhibitory concentration (IC50) is 3.24 nM at LSD1, 4.32 nM in the test on NCI-H69 cells, 1.86 nM in the test with NCI-H1417 cells and 1.03 nM against pan-HDAC.

Consider `COC(=O)c1ccc(-c2c(-c3ccc(OC)c(O)c3)cnc(N3CCC(NCc4ccc(/C=C/C(=O)NO)cc4)CC3)c2C#N)cn1` [Example 253, Methyl (E)-3′-cyano-5′-(3-hydroxy-4-methoxyphenyl)-2′-(4-((4-(3-(hydroxyamino)-3-oxoprop-1-en-1-yl)benzyl)amino)piperidin-1-yl)-[3,4′-bipyridine]-6-carboxylate formate], for which the IC50 was 342 nM against LSD1, 5.25 nM with NCI-H69 cells, 13.2 nM in the test with NCI-H1417 cells and 0.3 nM on pan-HDAC.

As to `COc1ccc(-c2cnc(N3CCC(NCc4ccc(/C=C/C(=O)NO)cc4)CC3)c(C)c2-c2ccc(C#N)nc2)cc1O` [Example 254, (E)-3-(4-(((1-(6-Cyano-5′-(3-hydroxy-4-methoxyphenyl)-3′-methyl-[3,4′-bipyridin]-2′-yl)piperidin-4-yl)amino)methyl)phenyl)-N-hydroxyacrylamide formate], the half-inhibitory concentration (IC50) came to 35.4 nM against LSD1, 4.69 nM in the test with NCI-H69 cells, 5.77 nM in the test on NCI-H1417 cells and 0.41 nM at pan-HDAC.

Turning to `COc1ccc(-c2cnc(N3CCC(NCc4ccc(/C=C/C(=O)NO)cc4)CC3)c(C#N)c2-c2cnc(C#N)cn2)cc1O` [Example 256, (E)-3-(4-(((1-(3-Cyano-4-(5-cyanopyrazin-2-yl)-5-(3-hydroxy-4-methoxyphenyl)pyridin-2-yl)piperidin-4-yl)amino)methyl)phenyl)-N-hydroxyacrylamide formate], the IC50 turned out to be 28.8 nM on LSD1, 8.63 nM in the test with NCI-H69 cells, 8.48 nM with NCI-H1417 cells and 0.26 nM at pan-HDAC.

Consider `COc1ccc(-c2cnc(N3CCC(NCc4ccc(/C=C/C(=O)NO)c(OC)c4)CC3)c(C#N)c2-c2ccc(C#N)nc2)cc1O` [Example 257, (E)-3-(4-(((1-(3′,6-Dicyano-5′-(3-hydroxy-4-methoxyphenyl)-[3,4′-bipyridin]-2′-yl)piperidin-4-yl)amino)methyl)-2-methoxyphenyl)-N-hydroxyacrylamide formate], for which the IC50 on LSD1 was found to be 7.93 nM; in the test with NCI-H69 cells it was 11.2 nM; in the test on NCI-H1417 cells it was 7.61 nM; against pan-HDAC it was 0.59 nM.

As for `COc1ccc(-c2cnc(N3CCC(NCc4ccc(/C=C/C(=O)NO)cc4)CC3)c(C#N)c2-c2ccc(C(N)=O)nc2)cc1O` [Example 259, (E)-3′-Cyano-5′-(3-hydroxy-4-methoxyphenyl)-2′-(4-((4-(3-(hydroxyamino)-3-oxoprop-1-en-1-yl)benzyl)amino)piperidin-1-yl)-[3,4′-bipyridine]-6-carboxamide formate], the IC50 against LSD1 turned out to be 81.2 nM; in the test with NCI-H69 cells it was 7.48 nM; with NCI-H1417 cells, 7.2 nM; against pan-HDAC, 0.25 nM.

Take `COc1ccc(-c2cnc(N3CCC(NCc4ccc(/C=C/C(=O)NO)cc4)CC3)c(CC#N)c2-c2ccc(C#N)nc2)cc1O` [Example 261, (E)-3-(4-(((1-(6-Cyano-3′-(cyanomethyl)-5′-(3-hydroxy-4-methoxyphenyl)-[3,4′-bipyridin]-2′-yl)piperidin-4-yl)amino)methyl)phenyl)-N-hydroxyacrylamide formate]: the IC50 on LSD1 is 3.18 nM; with NCI-H69 cells, 8.47 nM; with NCI-H1417 cells, 19 nM; against pan-HDAC it was 1.42 nM.

`COc1cc(F)c(-c2cnc(N3CCC(NCc4ccc(/C=C/C(=O)NO)cc4)CC3)c(C)c2-c2ccc(C#N)nc2)cc1O` [Example 262, (E)-3-(4-(((1-(6-Cyano-5′-(2-fluoro-5-hydroxy-4-methoxyphenyl)-3′-methyl-[3,4′-bipyridin]-2′-yl)piperidin-4-yl)amino)methyl)phenyl)-N-hydroxyacrylamide formate]: the IC50 at LSD1 is 7.04 nM; with NCI-H69 cells, 11.1 nM; in the test with NCI-H1417 cells, 11.8 nM; against pan-HDAC it was 0.61 nM.

In the case of `COc1ccc(-c2ccc(N3CCC(NCc4ccc(/C=C/C(=O)NO)cc4)CC3)c(C#N)c2-c2ccc(C#N)nc2)cc1O` [Example 267, (E)-3-(4-(((1-(3-Cyano-2-(6-cyanopyridin-3-yl)-3′-hydroxy-4′-methoxy-[1,l′-biphenyl]-4-yl)piperidin-4-yl)amino)methyl)phenyl)-N-hydroxyacrylamide formate], the IC50 on LSD1 worked out at 7.36 nM; in the test on NCI-H69 cells, 13.6 nM; in the test on NCI-H1417 cells, 7.49 nM; at pan-HDAC, 1.93 nM.

Regarding `COc1ccc(-c2cnc(N3CCC(NCc4ccc(/C=C/C(=O)NO)cc4F)CC3)c(F)c2-c2ccc(C#N)nc2)cc1O` [Example 269, (E)-3-(4-(((1-(6-Cyano-3′-fluoro-5′-(3-hydroxy-4-methoxyphenyl)-[3,4′-bipyridin]-2′-yl)piperidin-4-yl)amino)methyl)-3-fluorophenyl)-N-hydroxyacrylamide hydrochloride], the IC50 turned out to be 193 nM against LSD1, 1.87 nM with NCI-H69 cells, 2.66 nM in the test with NCI-H1417 cells and 0.93 nM against pan-HDAC.

`COc1cc(F)c(-c2cnc(N3CCC(NCc4ccc(/C=C/C(=O)NO)cc4)CC3)c(F)c2-c2ccc(C#N)nc2)cc1O` [Example 270, (E)-3-(4-(((1-(6-Cyano-3′-fluoro-5′-(2-fluoro-5-hydroxy-4-methoxyphenyl)-[3,4′-bipyridin]-2′-yl)piperidin-4-yl)amino)methyl)phenyl)-N-hydroxyacrylamide formate]: the IC50 on LSD1 is 24.8 nM; in the test on NCI-H69 cells it was 3.24 nM; with NCI-H1417 cells it was 4.88 nM; at pan-HDAC, 0.32 nM.

For `COc1ccc(-c2cnc(N3CCC(NCc4ccc(/C=C(\F)C(=O)NO)cc4)CC3)c(F)c2-c2ccc(C#N)nc2)cc1O` [Example 271, (Z)-3-(4-(((1-(6-Cyano-3′-fluoro-5′-(3-hydroxy-4-methoxyphenyl)-[3,4′-bipyridin]-2′-yl)piperidin-4-yl)amino)methyl)phenyl-2-fluoro-N-hydroxyacrylamide formate], the IC50 against LSD1 was determined as 35.1 nM; in the test with NCI-H69 cells it was 1.8 nM; in the test with NCI-H1417 cells, 2.19 nM; against pan-HDAC it was 0.83 nM.

Take `COc1ccc(-c2cnc(N3CCC(NCc4ccc(/C=C/C(=O)NO)cc4)CC3)cc2-c2ccc(C#N)nc2)cc1O` [Example 272, ((E)-3-(4-(((1-(6-Cyano-5′-(3-hydroxy-4-methoxyphenyl)-[3,4′-bipyridin]-2′-yl)piperidin-4-yl)amino)methyl)phenyl)-N-hydroxyacrylamide formate]: the IC50 came to 25.2 nM against LSD1, 13.3 nM in the test on NCI-H69 cells, 16.8 nM in the test on NCI-H1417 cells and 0.3 nM against pan-HDAC.
